Several values for one entry are separate records, joined by “and”; a condition that tells them apart may be missing. Equal entries are not always repeated. Entries after “also recorded” stand apart in the source; their conditions may differ.
Columns and labels:
[1] = Tissue platinum accumulation by atomic absorption after 8 cycles of oxaliplatin; format: in vivo, mouse; conditions: buflomedil 80 mg/kg po; 8 cycles OXA; 24 h after last administration
Method: At the end of 8 cycles of treatment, cold plate test, dynamic test and NCS test were conducted in all mice. Platinum content in DRG, Sciatic nerves and kidney of 3 mice each in the OXA and OXA+BFMD groups, was measured using the method below. The tissue total platinum concentration was determined on frozen sciatic nerve. […] For each tissue, a calibration with control standard tissue was generated. All frozen test samples and standards were treated for a digestion process with a specific HNO3: HCl solution (1:3). The samples obtained after digestion were analyzed by “Atomic Absorption” (Analyst 600 Perkin Elmer, Monza, Italy), and platinum tissue concentration was calculated accordingly.

HepG2 cells = assay: Anti-proliferation study (SRB assay) in HepG2 cells; conditions: FIG. 10
Method: The potency was determined by the sulforhodamine B (SRB) assay in 96-well plates. […] Seeding density was 3000 cells/well for both cell lines.

[2] = tested on: Balb/c mice exposed to chronic treatment with Oxaliplatin; assay: Sciatic nerve histology, g-ratio, in chronic oxaliplatin neuropathy model; format: in vivo, mouse; conditions: OXA 3.5 mg/kg iv, 8 cycles ± BFMD 30 mg/kg ip + 15 mg/kg iv
Method: After completion of behavioral and electrophysiological analysis, animals were killed and sciatic nerves were dissected, fixed, stained for myelin and cut as semithin sections. Light microscopy was performed to capture an image of the entire nerve which was then subjected to semi-automatic software-based nerve morphometry in order to assess axon diameter and myelin thickness 20.
To assess changes in nerve cell myelination, we calculated the g ratio of nerve fibers (g-ratio denominates the numerical ratio between the diameter of the axon and the outer diameter of the myelinated fiber; hypomyelination in sciatic nerves, which is associated with platinum neurotoxicity (Boehmerle, W., et al. Sci. Rep. 4, 6370), would thus cause an increase of the g-ratio).

[3] = tested on: Balb/c mice exposed to chronic treatment with Oxaliplatin; assay: Caudal nerve conduction study in chronic oxaliplatin neuropathy model; format: in vivo, mouse; conditions: for caudal nerve action potential amplitude / caudal nerve conduction velocity: OXA 3.5 mg/kg iv, 8 cycles ± BFMD 30 mg/kg ip + 15 mg/kg iv
Method: The development of peripheral neuropathy after chronic administration of drugs was assessed by evaluating the nerve conduction velocity (NCV) along caudal and digital nerve using an electromyography apparatus (Myto2 ABN Neuro, Firenze, Italy). Caudal NCV was determined by placing a couple of recording needle electrodes at the base of the tail and a couple of stimulating needle electrodes 3.5 cm distally to the recording points. Similarly, the digital NCV was determined by placing the recording electrodes close to the ankle bone and the stimulating electrodes close to the fourth toe near the digital nerve. The intensity, duration and frequency of stimulation were set up in order to obtain optimal results. All the neurophysiological determinations were performed under standard conditions in a temperature-controlled room (22+/−2° C.) and the animal under isoflurane anesthesia along the whole procedure with continuous monitoring of vital signs.

[4] = tested on: male wistar rats treated with cisplatin; assay: Cisplatin nephrotoxicity in Wistar rats (Example 9); format: in vivo, rat; conditions: co-administration with cisplatin 11 mg/kg IV; 72 hrs post treatment; expected
[5] = cited from earlier work
[6] = Dolutegravir plasma concentration in Balb/C mice after PO, IV and IP administration; format: in vivo, mouse; conditions: 10 mg/kg PO, 4 mg/kg IV, 4 mg/kg IP
Method: Male mice of 6-7 weeks of age were obtained from Charles River and allowed to acclimate for 3-5 days. The mice were weighed and individually identified (tail marked). The mice (n=3) in the oral (PO) group were fasted overnight and orally gavaged with 10 mg/kg of Dolutegravir. The second group of mice (n=3) were intravenously (IV) injected with 4 mg/kg of Dolutegravir. The third group of mice (n=3) were intraperitoneally (IP) injected with 4 mg/kg of Dolutegravir. At 10 min, 0.5 h, 1 h post dosing. ˜120 μl of blood sample was collected from the IV and IP mice by orbital venous sinus bleeding. At 1 h, 2 h, 4 h post dosing, ˜120 μl of blood sample was collected from the PO mice by orbital venous sinus bleeding. […] For analysis, the plasma samples were diluted into the calibration range as needed. […] The calibration curve was extracted in the same way as the unknown samples. The final extracts were analyzed by LC-MS/MS using positive electrospray ionizations under the multiple-reaction-monitoring (MRM) mode for the detection of Dolutegravir. The standard curve fitted by linear regression was used to quantify the analyte in the matrix using Analyst 1.6.2 software (AB Sciex).

[7] = molecular target: T1, OCT2 over OCT3, MATE1 and MATE2K (Homo sapiens, UniProt O15244); assay: Inhibition of OCT2-mediated oxaliplatin transport in 100% human serum or HBSS containing 4% BSA (IC50,app); conditions: human, MDCK-II cells transfected with human transporters, selectivity between OCT2 and OCT3, MATE1 and MATE2K, oxaliplatin transport
T1 sequence (O15244 1-555): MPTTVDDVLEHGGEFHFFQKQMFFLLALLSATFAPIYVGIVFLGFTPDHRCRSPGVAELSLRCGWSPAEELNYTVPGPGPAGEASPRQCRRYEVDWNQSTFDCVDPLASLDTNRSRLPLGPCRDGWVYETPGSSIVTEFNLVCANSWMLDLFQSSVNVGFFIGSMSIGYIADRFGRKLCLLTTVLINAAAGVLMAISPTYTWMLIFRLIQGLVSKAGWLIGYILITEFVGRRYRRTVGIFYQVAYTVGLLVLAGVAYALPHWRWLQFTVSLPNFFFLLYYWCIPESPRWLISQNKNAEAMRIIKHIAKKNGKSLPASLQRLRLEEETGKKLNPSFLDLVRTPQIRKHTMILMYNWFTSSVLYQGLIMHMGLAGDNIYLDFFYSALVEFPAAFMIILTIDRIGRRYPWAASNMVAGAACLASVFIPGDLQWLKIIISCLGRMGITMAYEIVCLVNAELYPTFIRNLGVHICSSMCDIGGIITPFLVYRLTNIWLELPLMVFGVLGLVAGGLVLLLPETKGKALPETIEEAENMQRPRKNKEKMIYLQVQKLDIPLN
Description: Fully confluent MDCK cell monolayers were transfected with either cDNA plasmids encoding the human transporter to be tested or a GFP control. […] The cells were then washed with ice-cold PBS and lysed with 50:50 acetonitrile:H2O. Intracellular content of the substrate was quantified by LC/MS/MS or a MicroBeta radiometric plate reader.

SMILES: COc1cc(OC)c(C(=O)CCCN2CCCC2)c(OC)c1 [Buflomedil, 4-pyrrolidin-1-yl-1-(2,4,6-trimethoxyphenyl)butan-1-one]
- platinum (oxaliplatin) accumulation in DRG [1]: effective on reducing platinum accumulation in DRG; also recorded: significant decrease in oxaliplatin accumulation in DRG
- platinum (oxaliplatin) accumulation in kidney [1]: effective on reducing platinum accumulation; also recorded: reduced oxaliplatin accumulation in the kidney
- platinum (oxaliplatin) accumulation in sciatic nerves [1]: such decrease was not seen in sciatic nerves
- effect on anti-tumor potency of oxaliplatin in HepG2 (HepG2 cells): not buflomedil
- sciatic nerve G-ratio (hypomyelination) ([2]; listed as BFMD): reduction in G-ratio of the OXA+BFMD group vs OXA group
- sciatic nerve G-ratio (hypomyelination) ([2]; listed as buflomedil): effective on reducing sciatic nerve damage
- caudal nerve action potential amplitude ([3]; listed as BFMD): no statistically significant difference among CTRL. BFMD and OXA+BFMD groups
- caudal nerve conduction velocity ([3]; listed as BFMD): small but statistically significant increase when compared to OXA alone
- caudal nerve action potential amplitude ([3]; listed as buflomedil): effective on reducing peripheral neurotoxicity
- caudal nerve conduction velocity ([3]; listed as buflomedil): effective on reducing peripheral neuropathy
- nerve injury assessed by caudal NCV ([3]; buflomedil 80 mg/kg po 2 hours before OXA, 8 cycles, n=3/group): effective on reducing nerve injury; also recorded: showed protective effects against OXAIPN
- serum BUN values [4]: lowers the BUN values
- plasma level associated with serious toxicities ([5]; European Medicines Agency 2012, Bourguignon 2012): above 10 mg/I and > 32.5 uM
- MTC (maximum tolerable concentration) ([5]; plasma): 10 mg/I

SMILES: C[C@@H]1CCO[C@H]2Cn3cc(C(=O)NCc4ccc(F)cc4F)c(=O)c(O)c3C(=O)N12 [Dolutegravir]
- effect of route of administration on plasma exposure [6]: route of administration significantly affected dolutegravir plasma exposure

SMILES: Clc1ccc(COC(Cn2ccnc2)c2ccc(Cl)cc2Cl)c(Cl)c1 (stereo not shown) [Miconazole]
- selectivity ratio [7]: > 10

— patent US11197862B2, “Methods of preventing toxicity of platinum drugs” (XOMICS BIOPHARMA, INC., priority 2015, dated 2021)
